Experimental data from PubChem BioAssay AID404 (SGCOxCompounds, 2006).

These molecules were tested against Receptor-type tyrosine-protein phosphatase kappa (Homo sapiens) (UniProt Q15262) (assay: inhibitors of receptor tyrosine phosphatase kappa – biochemical, recombinant human enzyme, DiFMUP fluorescence (AID 404)). Details: recombinant PTPRK, at 50 µM, enzyme 34 ng/mL, 25 °C, DTT 5 mM, stronger effect = higher value.
Chain of Receptor-type tyrosine-protein phosphatase kappa (Homo sapiens) (Q15262 whole entry, looked up): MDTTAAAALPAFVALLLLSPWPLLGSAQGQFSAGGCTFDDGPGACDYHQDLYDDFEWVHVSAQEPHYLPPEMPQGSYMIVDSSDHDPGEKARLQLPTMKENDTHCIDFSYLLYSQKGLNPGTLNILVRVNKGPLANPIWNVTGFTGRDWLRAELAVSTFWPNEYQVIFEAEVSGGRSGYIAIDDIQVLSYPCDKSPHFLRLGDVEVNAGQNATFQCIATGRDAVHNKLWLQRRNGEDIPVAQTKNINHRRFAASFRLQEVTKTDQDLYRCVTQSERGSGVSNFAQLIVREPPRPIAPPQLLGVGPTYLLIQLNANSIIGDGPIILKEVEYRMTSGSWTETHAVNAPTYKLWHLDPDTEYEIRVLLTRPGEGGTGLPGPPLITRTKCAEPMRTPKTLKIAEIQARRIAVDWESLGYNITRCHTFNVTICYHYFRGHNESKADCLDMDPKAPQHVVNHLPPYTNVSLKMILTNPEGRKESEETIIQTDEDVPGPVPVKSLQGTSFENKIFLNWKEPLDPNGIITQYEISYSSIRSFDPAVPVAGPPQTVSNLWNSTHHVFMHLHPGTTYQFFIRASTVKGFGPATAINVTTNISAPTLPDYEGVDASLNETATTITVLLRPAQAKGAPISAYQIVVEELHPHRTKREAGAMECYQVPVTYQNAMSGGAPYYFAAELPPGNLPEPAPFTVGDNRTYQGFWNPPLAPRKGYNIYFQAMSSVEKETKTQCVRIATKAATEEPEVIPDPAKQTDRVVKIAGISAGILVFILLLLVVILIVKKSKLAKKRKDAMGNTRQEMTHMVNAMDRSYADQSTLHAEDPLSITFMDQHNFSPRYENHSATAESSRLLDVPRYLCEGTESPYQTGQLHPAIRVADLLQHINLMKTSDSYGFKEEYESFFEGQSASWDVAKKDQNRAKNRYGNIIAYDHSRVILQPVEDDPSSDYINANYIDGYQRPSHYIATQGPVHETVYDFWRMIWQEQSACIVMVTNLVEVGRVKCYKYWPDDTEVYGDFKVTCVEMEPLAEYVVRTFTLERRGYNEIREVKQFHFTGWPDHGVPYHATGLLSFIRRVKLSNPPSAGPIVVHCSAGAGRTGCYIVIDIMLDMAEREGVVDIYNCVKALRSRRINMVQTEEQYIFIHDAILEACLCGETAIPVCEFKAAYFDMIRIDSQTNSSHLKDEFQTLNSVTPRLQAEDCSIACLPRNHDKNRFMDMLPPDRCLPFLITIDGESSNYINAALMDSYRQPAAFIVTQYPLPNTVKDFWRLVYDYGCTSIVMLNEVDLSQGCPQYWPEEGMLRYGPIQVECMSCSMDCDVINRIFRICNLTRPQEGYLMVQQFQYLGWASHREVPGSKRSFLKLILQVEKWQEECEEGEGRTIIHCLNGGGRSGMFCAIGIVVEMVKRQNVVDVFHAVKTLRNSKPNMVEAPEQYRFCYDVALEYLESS

| Structure (SMILES) | inhibition [%] |
| --- | --- |
| Cc1cc(C)c(N2C(=O)c3ccc(C(=O)Nc4ccc(O)cc4C(=O)O)cc3C2=O)c(C)c1 | 38 |
| O=C(O)c1ccc(O)c(C=Nc2ccc3oc(-c4cccc(Cl)c4Cl)nc3c2)c1 | 45 |
| OO.OO.[K+].[O]=[V].c1ccc(-c2ccccn2)nc1 | 93 |
| CC(C)(C)NC(=O)CCN(/N=C/c1cc(C(=O)O)ccc1O)C1=NS(=O)(=O)c2ccccc21 | 30 |
| Oc1c(Cl)c(Cl)c(O)c2nsnc12 | 12 |
| O=C(Nc1ccc(O)cc1C(=O)O)c1ccc2c(c1)C(=O)N(CC1CCCO1)C2=O (configuration not stated) | 12 |
| Cc1c(Cl)c(C)c([N+](=O)[O-])c(O)c1C=Nc1ccc(O)cc1C(=O)O | 78 |
| COc1ccc(-c2nc3cc(N=Cc4cc(C(=O)O)ccc4O)ccc3o2)cc1 | 72 |
| O=C(O)c1ccc(O)c(C=Nc2cccc(-c3nc4ccccc4o3)c2)c1 | 31 |
| COc1cccc(-c2nc3cc(N=Cc4cc(C(=O)O)ccc4O)ccc3o2)c1 | 29 |
| CC1=C(C)OC(Nc2ccc(Br)cc2C(=O)O)C=C1 (configuration not stated) | 15 |
| O=C1NC(=S)NC(=O)C1=C/C=C/c1ccco1 | 22 |
| O=C([O-])c1ccccn1.OO.OO.[K+].[K+].[O]=[V] | 98 |
| O=C(COc1ccc([N+](=O)[O-])cc1)Nc1ccc(O)cc1C(=O)O | 20 |
| Cc1ccc2nc(-c3cc(N=Cc4cc(C(=O)O)ccc4O)ccc3O)[nH]c2c1 | 34 |
| O=C(O)c1ccc([O-])cn1.OO.OO.[K+].[K+].[O]=[V] | 100 |

| Structure (SMILES) | inhibition [%] |
| --- | --- |
| OO.OO.[K+].[O]=[V].c1cnc2c(c1)ccc1cccnc12 | 96 |
| NC1=NC(=O)/C(=C/C=C/c2ccc([N+](=O)[O-])o2)S1 | 24 |
| O=C1NC(=S)S/C1=C\C=C\c1ccc([N+](=O)[O-])o1 | 78 |
| O=C(O)c1ccc(O)c(/C=N/N(CCO)C2=NS(=O)(=O)c3ccccc32)c1 | 32 |
| O=C(O)c1ccc(O)cn1.OO.[O]=[V] | 94 |
| CN(N=O)c1ccc(O)c(O)c1 | 96 |
| CC1(C)OC(=O)C(=Cc2ccc(Br)o2)C(=O)O1 | 11 |
| O=C(O)c1ccc(O)c(C=Nc2ccc3oc(-c4cc(Cl)ccc4Cl)nc3c2)c1 | 15 |
| O=C(Nc1ccc(O)cc1C(=O)O)c1ccc(NC(=O)c2ccco2)cc1 | 18 |
| [NH-]CO.[NH-]CO.[NH-]CO.[NH-]CO.[O]=[V][O][V]=[O] | 89 |
| CC(C)CN1C(=O)c2ccc(C(=O)Nc3ccc(O)cc3C(=O)O)cc2C1=O | 41 |
| CC(=O)c1ccc2c(c1)C1C=CCC1C(C(=O)O)N2 (configuration not stated) | 40 |
| CC(C)CCN1C(=O)c2ccc(C(=O)Nc3ccc(O)cc3C(=O)O)cc2C1=O | 14 |
| Cc1ccc(N=Cc2cc(C(=O)O)ccc2O)c(O)c1 | 20 |
| F | 14 |
| CC(C)(c1ccc(NS(=O)(=O)C(F)(F)F)cc1)c1ccc(C(C)(C)c2ccc(NS(=O)(=O)C(F)(F)F)cc2)cc1 | 14 |
